From patent publication US20240352419A1, “METHODS AND COMPOSITIONS FOR DIFFERENTIATION OF PLURIPOTENT STEM CELLS AND DERIVED HEMATOPOIETIC LINEAGE CELLS” (NUWACELL BIOTECHNOLOGIES CO., LTD., priority 2022, published 2024)

Tests used:
Assay type in all cases: cell-based
PBNK cells = assay: Expansion of PBNK cells from PBMCs (expansion fold, CD56+CD3- percentage by flow cytometry); details: effect of heparin sodium concentration (0-50 μg/mL) in NKSFM
Experimental: The effect of the concentration of nicotinamide (NAM) in an exemplary basal medium on NK cell expansion was evaluated. The above basal medium comprised the following components: IMDM (Sigma):RPMI1640 (Gibco) (50%: 50%); about 1.3 ng/ml of Cupric sulfate, about 3 μM of Ferric sulfate, about 0.432 μg/mL of Zinc sulfate, about 1˜50 ng/ml of Na Selenite, about 110 μg/mL of Sodium pyruvate, 0.1˜20 μg/mL of Insulin, 1˜200 μg/mL of Transferrin, about 1% (v/v) of GlutaMAX-1, 0.1˜20 mg/mL of HSA, 1˜400 μM of MTG, about 80 μg/mL of Ascorbic acid and indicated concentration of NAM. Peripheral blood mononuclear cells (PBMCs) were isolated by density gradient centrifugation using Ficoll-Paque. On Day 0, PBMCs were plated at 1×10^6 cells/mL in a 48-well-plate in the basal medium with NAM (either 0, 1, 2, 2.5, 3, 3.5, 4, or 5 mM) and stimulated with the following reagents for 3 days: immobilized CD16 antibody (Biolegend, 302014) (135 ng/cm^2), IL-2 (700 IU/mL), IL-15 (10 ng/ml) and OK432 (0.01 KE/mL). On day 3, cells were re-suspended in the above basal medium supplemented with IL-2 (700 IU/mL) and IL-15 (10 ng/mL). Fresh medium was added every other day to maintain cell density below 2×10^6 cells/mL. Cells were collect on Day 14 and stained with CD56-PE and CD3-PerCP-Cy5.5 antibodies, the percentage of CD56^+CD3^− NK cells was analyzed by flow cytometry.
(§1) The effect of heparin sodium concentration in an exemplary NKSFM on NK cell expansion was also evaluated. NKSFM comprised the following components: IMDM (Sigma):DMEM/F12 (Gibco) (50%: 50%); about 20 μM of Ethanolamine, about 1˜50 ng/ml of Na Selenite, about 110 μg/mL of Sodium pyruvate, 0.1˜20 μg/mL of Insulin, 1˜200 μg/mL of Transferrin, about 1% (v/v) of GlutaMAX-1, 0.1˜20 mg/mL of Human serum albumin, 1˜400 μM of MTG, about 80 μg/mL of Ascorbic acid, about 1˜5 mM of NAM, 4% (v/v) of PLT, and indicated concentration of heparin sodium. PBMCs were isolated by density gradient centrifugation using Ficoll-Paque. On Day 0, PBMCs were plated at 1×10^6 cells/mL in a 48-well-plate in NKSFM with heparin sodium (0, 0.5, 1, 3, 10, 30, or 50 μg/mL) and stimulated with the following reagents for 3 days: immobilized CD16 antibody (Biolegend, 302014) (135 ng/cm^2), OK432 (0.01 KE/mL), NeoIL-2 (50 ng/ml), IL-12 (10 ng/mL), IL-18 (50 ng/mL). […] Cells were collect on Day 13 and stained with CD56-PE and CD3-PerCP-Cy5.5 antibodies, the percentage of CD56^+CD3^− NK cells was analyzed by flow cytometry. The specific lysis of K562 tumor cells by NK cells were assessed by CFSE/7-AAD cytotoxicity assay. […] After incubation for 4 hours, cells were stained with 7-AAD (Live/dead staining) and analyzed with flow cytometry.
The effect of PLT percentage (v/v) in an exemplary NKSFM on NK cell expansion was evaluated. […]

K562 tumor cells = assay: CFSE/7-AAD cytotoxicity assay of expanded NK cells; details: effect of heparin sodium concentration in NKSFM, E:T 3:1, 4 hours, FIG. 3C
Experimental: as §1, with “Ficoll-Paque.” for “Ficoll-Paque. On Day 0, PBMCs were plated at 1×10^6 cells/mL in a 48-well-plate in NKSFM with heparin sodium (0, 0.5, 1, 3, 10, 30, or 50 μg/mL) and stimulated with the following reagents for 3 days: immobilized CD16 antibody (Biolegend, 302014) (135 ng/cm^2), OK432 (0.01 KE/mL), NeoIL-2 (50 ng/ml), IL-12 (10 ng/mL), IL-18 (50 ng/mL).”
The effect of PLT percentage (v/v) in an exemplary NKSFM on NK cell expansion was evaluated. […] Cells were collect on Day 14 and stained with CD56-PE and CD3-PerCP-Cy5.5 antibodies, the percentage of CD56^+CD3^− NK cells was analyzed by flow cytometry. The specific lysis of K562 tumor cells by NK cells were assessed by CFSE/7-AAD cytotoxicity assay. […]

K562 cells = assay: Cytotoxicity of Stage 3 iNK cells by CFSE/7AAD assay; details: added to Stage 3 medium (IL-10 20 ng/mL, IL-18 50 ng/mL), E:T 3:1, 4 hr, FIG. 13A
Experimental: hiPSCs were prepared as described in CN108373998B. On Day −1, Embryoid body (EB) formation (Stage 1-1) was carried out by placing individualized hiPSCs in E8 medium containing 10 μM Blebbistatin in T25 flasks on a bellydancer and culture overnight. On Day 0, lateral mesoderm differentiation (Stage 1-2) was initiated by changing the medium to a Stage 1-2 differentiation medium comprising IF-4 basal medium and supplemented with BMP4 (25 ng/mL), VEGF (15 ng/ml), bFGF (0.5 ng/mL) and CHIR99021 (4 μM) for 2 days. On Day 2, lateral mesoderm differentiation (Stage 1-3) continued for 1 day in a Stage 1-3 differentiation medium comprising IF-4 basal medium and supplemented with BMP4 (25 ng/mL), VEGF (50 ng/mL) and bFGF (0.5 ng/mL) and CHIR99021 (1 μM). On Day 3, HE specification (Stage 1-4) was initiated by adding a Stage 1-4 differentiation medium comprising IF-4 basal medium and supplemented with VEGF (15 ng/ml), bFGF (5 ng/ml), XAV939 (5 μM) for 1 day. […] On Day 11 of co-culture, iNK cells were collected and stained with CD56-PE antibody (BD, #555516), the percentage of CD56+ cells was analyzed by flow cytometry. The cytotoxicity of Stage 3 iNK cells towards K562 cells was detected by CFSE/7AAD assay after 4 hr co-culture at E:T of 3:1.

| Substance | NK cell expansion fold (PBNK cells; Day 13, FIG. 3A) | percentage of CD56+CD3− NK cells (PBNK cells; Day 13, FIG. 3B) | specific lysis of K562 tumor cells (K562 tumor cells) | cytotoxicity of iNK cells (K562 cells) |
| --- | --- | --- | --- | --- |
| heparin sodium | significantly influences | minimal effect | minimal effect | – |
| IL-10: interleukin added to Stage 3 expansion and maturation medium | – | – | – | significantly improve |
